The subject of data set [1] is L. amazoniensis promastigotes. The data set is described as follows: Leishmanicidal activity against L. amazoniensis promastigotes (XTT). The conditions noted are these: for IC50: Leishmania amazonensis, 72 h, read-out: L. amazoniensis IC50. As for the experimental part: (§1) All strains were cultured in Schneider’s insect medium, (pH 6.2) supplemented with 10% FBS and incubated at 26 °C. Medium changes were made every 72 h to maintain a viable parasitic population. Leishmanicidal activity was determined according to Williams with some modifications. Samples were dissolved in DMSO (maximum final concentration 1%) at 10 mg/mL. Promastigotes in logarithmic phase of growth, at the concentration 3 × 10^6 parasites/mL, were distributed (100 μL/well) in 96-well flat bottom microtiter plates. Samples with different concentrations (3.1–100 μg/mL) were added (100 μL). […] Assays were performed in triplicates. The microwell plates were incubated for 72 h at 26 °C. After incubation, a solution of XTT (1 mg/mL) in PBS (pH 7.0 at 37 °C) with PMS (0.06 mg/mL) was added (50 μL/well), and incubated for 3 h at 26 °C. The optical density of each well was measured and the IC50 values calculated.

Data set [2] concerns L. brasiliensis promastigotes. The data set is described as follows: Leishmanicidal activity against L. brasiliensis promastigotes (XTT). The conditions noted are these: for IC50: 72 h, read-out: L. brasiliensis IC50. The procedure:
as §1, with “Evaluations against Leishmania parasites: Promastigotes of Leishmania-Leishmania: L. amazonensis, Clone 1, NHOM-BR-76-LTB-012 (Lma, donated by the Paul Sabatier Université, France) and Leishmania-Viannia: L. braziliensis M2904 C192 RJA (M2904, donated by Dr. Jorge Arévalo from Universidad Peruana Cayetano Heredia, Peru). All” for “All”

Another data set relates to T. cruzi epimastigotes. The data set is described as follows: Trypanocidal activity against T. cruzi epimastigotes (XTT). Type of data set: cell-based, Trypanosoma cruzi. The following applies: for IC50: Trypanosoma cruzi, read-out: T. cruzi IC50; for selectivity ratio at 72 h: mouse (RAW 264.7 cells) / Trypanosoma cruzi (epimastigotes), RAW cell IC50 / T. cruzi IC50, read-out: T. cruzi SI (selectivity index, cytotoxicity/anti-protozoal activity). As for the experimental part:
Trypanocidal activity was determined according to Muelas-Serrano with some modifications. […] Benznidazol (3.1–100 μg/mL) was used as the control drug. Assays were performed in triplicates.

The nature of data set [3]: Cytotoxicity in RAW cells (Resazurin). Type of data set: cell-based, murine. The following applies: mouse. As for the experimental part: Evaluations against RAW cells: The Raw 264.7 murine macrophage cell line was purchased from the American Type Culture Collection (ATCC-TIB71). The cells were maintained in DMEM-HG medium supplemented with 10% fetal bovine serum, 100 U/mL of penicillin and 100 μg/mL of streptomycin, and sodium bicarbonate (2.2 g/L) in humidified atmosphere at 37 °C with 5% CO2. Samples were prepared as described above and added (in 100 μL DMSO) at different concentrations (6.2–200 μg/mL). Medium blank, control drugs and cell growth controls were included to evaluate cell viability. The plates were incubated for 72 h at 37 °C with 5% CO2. After incubation for the indicated time, the cells were washed, after which 10 μL of Resazurin reagent (2.0 mM) was added. They were further incubated at 37 °C for 3 h in a humidified incubator. The IC50 values were assessed using a fluorometric reader (540 nm excitation, 590 nm emission) and the Gen5 software. All assays were performed in triplicate.

Where [4] appears, read: epimastigotes, 72 h at 26 °C, XTT, triplicates.
Setting [5] is: L. amazoniensis SI (selectivity index, cytotoxicity/anti-protozoal activity), RAW cell IC50 / L. amazoniensis IC50.
Setting [6] is: L. brasiliensis SI (selectivity index, cytotoxicity/anti-protozoal activity), RAW cell IC50 / L. brasiliensis IC50.
Setting [7] is: RAW cells, 72 h at 37 °C, Resazurin, triplicate, read-out: Cytotoxicity IC50.

This note sets out measurements from publication PMC7412453, “SAR:s for the Antiparasitic Plant Metabolite Pulchrol. 1. The Benzyl Alcohol Functionality” (Molecules, 2020).

Each structure is given as a SMILES string. Like-named read-outs stand apart in the source and are kept apart here.

`COc1ccc2c(c1)-c1cc(C)ccc1C(C)(C)O2` [3a, 2-Methoxy-6,6,9-trimethyl-6H-benzo[c]chromene]: the figures for the selectivity ratio at 72 h (in data set [1]; in data set [2]; in the data set with T. cruzi epimastigotes) were 1.2, 1.4 and 2, respectively. For the same molecule, the IC50 is 85.3 ± 5.9 µM in data set [1], 69.6 ± 5.9 µM in data set [2] and 51.1 ± 17.7 µM in the data set with T. cruzi epimastigotes (setting [4]). The same molecule came in with an IC50 at 72 h in data set [3] of 99.5 ± 22 µM.
For the molecule `COc1ccc2c(c1)-c1cc(CCl)ccc1C(C)(C)O2` [3b, 9-(chloromethyl)-2-methoxy-6,6-dimethyl-6H-benzo[c]chromene], the selectivity ratio at 72 h in data set [1] (setting [5]) was 1.7; in data set [2] (setting [6]) it was 3.5; with T. cruzi epimastigotes, 1.6. Besides, the values for the IC50 (in data set [1]; in data set [2]; in the data set on T. cruzi epimastigotes (setting [4])) were 35 ± 2.8 µM, 17.1 ± 0.1 µM and 38.1 ± 0.4 µM, respectively. Further, the IC50 at 72 h in data set [3] is 59.2 ± 14.5 µM.
As to `COCc1ccc2c(c1)-c1cc(OC)ccc1OC2(C)C` [3c, 2-Methoxy-9-(methoxymethyl)-6,6-dimethyl-6H-benzo[c]chromene], the figures for the selectivity ratio at 72 h (in data set [1] (setting [5]); in data set [2] (setting [6]); with T. cruzi epimastigotes) were 0.6, 0.7 and 1.3, respectively. Also, the results for the IC50 (in data set [1]; in data set [2]; in the data set with T. cruzi epimastigotes (setting [4])) were 56.3 ± 12 µM, 49.2 ± 15.8 µM and 24.6 ± 3.5 µM, respectively. Besides, in data set [3], half-maximal inhibition (IC50 at 72 h) was put at 33.1 ± 2.1 µM.
Regarding `COc1ccc2c(c1)-c1cc(COC(C)C)ccc1C(C)(C)O2` [3d, 9-(Isopropoxymethyl)-2-methoxy-6,6-dimethyl-6H-benzo[c]chromene], the selectivity ratio at 72 h turned out to be 0.9 in data set [1], 0.9 in data set [2] and 2.5 with T. cruzi epimastigotes. The IC50 in data set [1] was found to be 35.2 ± 3.8 µM; in data set [2], 35.2 ± 3.2 µM; in the data set on T. cruzi epimastigotes (setting [4]), 12.9 ± 0.3 µM. Besides, the IC50 at 72 h in data set [3] (setting [7]) was 32 ± 0.3 µM.
Turning to `COc1ccc2c(c1)-c1cc(CNC(C)C)ccc1C(C)(C)O2` [3f, N-((2-Methoxy-6,6-dimethyl-6H-benzo[c]chromen-9-yl)methyl)propan-2-amine], the selectivity ratio at 72 h (in data set [1] (setting [5]); in data set [2] (setting [6]); with T. cruzi epimastigotes) was 0.4 each time. Also, the IC50 in data set [1] is 67.8 ± 13.8 µM; in data set [2], 83.5 ± 32.1 µM; with T. cruzi epimastigotes (setting [4]), 70.6 ± 9.6 µM. For the same molecule, the IC50 at 72 h in data set [3] was 29.5 ± 9.6 µM.
For `COc1ccc2c(c1)-c1cc(CNCC(C)C)ccc1C(C)(C)O2` [3g, N-((2-Methoxy-6,6-dimethyl-6H-benzo[c]chromen-9-yl)methyl)-2-methylpropan-1-amine], the selectivity ratio at 72 h in data set [1] (setting [5]) was 0.8; in data set [2] (setting [6]) it was 0.5; in the data set on T. cruzi epimastigotes, 0.8. The IC50 stood at 15.4 ± 3.1 µM in data set [1], 25.8 ± 6.2 µM in data set [2] and 15.4 ± 4 µM in the data set with T. cruzi epimastigotes (setting [4]). In data set [3], this molecule had an IC50 at 72 h of 12.3 ± 1.2 µM.
On to `COc1ccc2c(c1)-c1cc(CNCCC(C)C)ccc1C(C)(C)O2` [3h, N-((2-Methoxy-6,6-dimethyl-6H-benzo[c]chromen-9-yl)methyl)-3-methylbutan-1-amine], for which the selectivity ratio at 72 h in data set [1] (setting [5]) was 0.4; in data set [2] (setting [6]), 0.5; in the data set with T. cruzi epimastigotes it was 1.3. Further, the figures for the half-inhibitory concentration (IC50) (in data set [1]; in data set [2]; in the data set on T. cruzi epimastigotes (setting [4])) were 17.7 ± 7.4 µM, 15.9 ± 0.9 µM and 5.9 ± 1.2 µM, respectively. This molecule also yielded an IC50 at 72 h in data set [3] of 7.4 ± 2.4 µM.
For `COc1ccc2c(c1)-c1cc(COC(C)=O)ccc1C(C)(C)O2` [4a, (2-Methoxy-6,6-dimethyl-6H-benzo[c]chromen-9-yl)methyl acetate], the results for the selectivity ratio at 72 h (in data set [1] (setting [5]); in data set [2] (setting [6]); with T. cruzi epimastigotes) were 1.2, 1.1 and 2.3, respectively. The IC50 in data set [1] turned out to be 26.9 ± 0.6 µM; in data set [2] it was 28.8 ± 0.3 µM; in the data set on T. cruzi epimastigotes (setting [4]), 14.4 ± 1.6 µM. In data set [3], this molecule had an IC50 at 72 h of 32.7 ± 22.4 µM.
Turning to `COc1ccc2c(c1)-c1cc(COC(=O)C(C)C)ccc1C(C)(C)O2` [4b, (2-Methoxy-6,6-dimethyl-6H-benzo[c]chromen-9-yl)methyl isobutyrate], the selectivity ratio at 72 h in data set [1] (setting [5]) amounted to 1; in data set [2] (setting [6]), 1.5; in the data set on T. cruzi epimastigotes, 3. The figures for the IC50 (in data set [1]; in data set [2]; in the data set with T. cruzi epimastigotes (setting [4])) were 26.7 ± 2.4 µM, 17.6 ± 0.9 µM and 8.8 ± 0.9 µM, respectively. Further, the concentration for half-maximal inhibition (IC50) at 72 h in data set [3] worked out at 26.4 ± 5.9 µM.
Consider `COc1ccc2c(c1)-c1cc(COC(=O)C(C)(C)C)ccc1C(C)(C)O2` [4c, (2-Methoxy-6,6-dimethyl-6H-benzo[c]chromen-9-yl)methyl pivalate], for which the selectivity ratio at 72 h is 1 in data set [1], 1.1 in data set [2] and 3 in the data set with T. cruzi epimastigotes. Further, the IC50 was determined as 20.5 ± 0.6 µM in data set [1], 17.4 ± 1.7 µM in data set [2] and 6.4 ± 0.1 µM with T. cruzi epimastigotes (setting [4]). Further, the IC50 at 72 h in data set [3] (setting [7]) worked out at 19.8 ± 0.9 µM.
For `CCCC(=O)OCc1ccc2c(c1)-c1cc(OC)ccc1OC2(C)C` [4d, (2-Methoxy-6,6-dimethyl-6H-benzo[c]chromen-9-yl)methyl butyrate], the selectivity ratio at 72 h in data set [1] (setting [5]) was 1.3; in data set [2] (setting [6]), 1.8; in the data set on T. cruzi epimastigotes it was 6.4. Also, the IC50 was 79.3 ± 9.4 µM in data set [1], 57.8 ± 2.4 µM in data set [2] and 16.2 ± 3.2 µM in the data set on T. cruzi epimastigotes (setting [4]). In addition, in data set [3], half-maximal inhibition (IC50 at 72 h) was put at 103 ± 35.3 µM.
For `COc1ccc2c(c1)-c1cc(COC(=O)CC(C)C)ccc1C(C)(C)O2` [4e, (2-Methoxy-6,6-dimethyl-6H-benzo[c]chromen-9-yl)methyl 3-methylbutanoate], the selectivity ratio at 72 h in data set [1] (setting [5]) worked out at 1.9; in data set [2] (setting [6]) it was 2.2; with T. cruzi epimastigotes it was 6.7. The IC50 in data set [1] worked out at 14.5 ± 0.1 µM; in data set [2], 13.1 ± 0.4 µM; with T. cruzi epimastigotes (setting [4]), 4.2 ± 1.1 µM. Further, in data set [3], it took 28.2 ± 9 µM to reach half-maximal inhibition (IC50 at 72 h).
Regarding `COc1ccc2c(c1)-c1cc(COC(=O)CC(C)(C)C)ccc1C(C)(C)O2` [4f, (2-Methoxy-6,6-dimethyl-6H-benzo[c]chromen-9-yl)methyl 3,3-dimethylbutanoate], the selectivity ratio at 72 h turned out to be 1 in data set [1] (setting [5]), 1 in data set [2] (setting [6]) and 3.3 in the data set with T. cruzi epimastigotes. Also, the IC50 in data set [1] was found to be 19.5 ± 0.8 µM; in data set [2] it was 20 ± 4.2 µM; with T. cruzi epimastigotes (setting [4]), 5.7 ± 0.3 µM. This molecule also returned an IC50 at 72 h in data set [3] of 19 ± 3 µM.
`CCCCCC(=O)OCc1ccc2c(c1)-c1cc(OC)ccc1OC2(C)C` [4g, (2-Methoxy-6,6-dimethyl-6H-benzo[c]chromen-9-yl)methyl hexanoate]: the figures for the selectivity ratio at 72 h (in data set [1]; in data set [2]; in the data set on T. cruzi epimastigotes) were 1.2, 1.9 and 2.3, respectively. For the same molecule, the 50% inhibitory concentration (IC50) came out at 42.3 ± 8.7 µM in data set [1], 27.7 ± 0.3 µM in data set [2] and 22.8 ± 5.7 µM in the data set on T. cruzi epimastigotes (setting [4]). In addition, the IC50 at 72 h in data set [3] (setting [7]) came to 52.1 ± 8.1 µM.
For `O=C(Cn1ccnc1[N+](=O)[O-])NCc1ccccc1` [Benznidazole, reference compound], the IC50 with T. cruzi epimastigotes (72 h) came to 19.2 ± 7.7 µM. The selectivity ratio at 72 h with T. cruzi epimastigotes amounted to 3.9. In addition, the IC50 at 72 h in data set [3] (setting [7]) stood at 74.7 ± 9.1 µM.
`CCCCCCCCCCCCCCCCOP(=O)([O-])OCC[N+](C)(C)C` [Miltefosine, reference compound]: the IC50 in data set [2] is 13 ± 1.2 µM. Further, the IC50 at 72 h in data set [3] (RAW 264.7 macrophage cells (ATCC-TIB71), RAW cells, 72 h at 37 °C, Resazurin, triplicate, read-out: Cytotoxicity IC50) was 76.6 ± 3.2 µM.
